Measured values reported in patent US9446039B2, “Aminoheteroaryl compounds as MTH1 inhibitors” (CEMM—FORSCHUNGSZENTRUM FÜR MOLEKULARE MEDIZIN GMBH, priority 2012, dated 2016).

Assays:
Format in all cases: binding
[1] = target: SW480 colon carcinoma cells lysate proteins (Homo sapiens, UniProt P30040); conditions: PreyGene ERP29
[2] = target: T1, SW480 colon carcinoma cells lysate proteins (Homo sapiens, UniProt P04264); conditions: PreyGene KRT1
T1 sequence (P04264 1-644): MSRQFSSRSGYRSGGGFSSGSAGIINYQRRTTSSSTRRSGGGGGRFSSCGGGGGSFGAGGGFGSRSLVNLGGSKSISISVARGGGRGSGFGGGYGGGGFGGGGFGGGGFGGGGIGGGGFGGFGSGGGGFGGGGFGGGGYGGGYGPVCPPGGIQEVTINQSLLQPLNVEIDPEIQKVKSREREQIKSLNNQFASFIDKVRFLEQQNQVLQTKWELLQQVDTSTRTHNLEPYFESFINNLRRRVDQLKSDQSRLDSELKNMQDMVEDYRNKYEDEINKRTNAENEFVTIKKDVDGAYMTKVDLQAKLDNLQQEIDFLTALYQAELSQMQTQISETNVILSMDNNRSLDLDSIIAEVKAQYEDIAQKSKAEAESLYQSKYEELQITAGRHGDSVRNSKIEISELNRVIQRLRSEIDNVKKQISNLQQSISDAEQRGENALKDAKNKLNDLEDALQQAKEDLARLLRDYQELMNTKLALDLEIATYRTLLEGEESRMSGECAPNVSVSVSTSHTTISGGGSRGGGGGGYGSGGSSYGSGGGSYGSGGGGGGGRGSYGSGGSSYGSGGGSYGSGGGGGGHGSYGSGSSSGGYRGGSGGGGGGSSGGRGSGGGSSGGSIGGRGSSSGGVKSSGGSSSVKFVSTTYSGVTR

[3] = target: T2, SW480 colon carcinoma cells lysate proteins (Homo sapiens, UniProt Q07021); conditions: PreyGene C1QBP
T2 sequence (Q07021 74-282): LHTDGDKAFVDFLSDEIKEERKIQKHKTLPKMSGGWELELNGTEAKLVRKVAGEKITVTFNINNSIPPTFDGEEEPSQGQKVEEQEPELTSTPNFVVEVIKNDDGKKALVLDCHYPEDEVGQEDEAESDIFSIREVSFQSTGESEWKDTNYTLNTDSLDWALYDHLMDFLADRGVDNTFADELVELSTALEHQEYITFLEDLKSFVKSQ

[4] = target: SW480 colon carcinoma cells lysate proteins (Homo sapiens, UniProt Q7Z406); conditions: PreyGene MYH14; SW480 cells
[5] = target: SW480 colon carcinoma cells lysate proteins (Homo sapiens, UniProt P22626); conditions: PreyGene HNRNPA2B1
[6] = target: SW480 colon carcinoma cells lysate proteins (Homo sapiens, UniProt P30153); conditions: PreyGene PPP2R1A
[7] = target: SW480 colon carcinoma cells lysate proteins (Homo sapiens, UniProt P67809); conditions: PreyGene YBX1; SW480 cells
[8] = target: T3, SW480 colon carcinoma cells lysate proteins (Homo sapiens, UniProt Q8NC51); conditions: PreyGene SERBP1; SW480 cells
T3 sequence (Q8NC51 1-408): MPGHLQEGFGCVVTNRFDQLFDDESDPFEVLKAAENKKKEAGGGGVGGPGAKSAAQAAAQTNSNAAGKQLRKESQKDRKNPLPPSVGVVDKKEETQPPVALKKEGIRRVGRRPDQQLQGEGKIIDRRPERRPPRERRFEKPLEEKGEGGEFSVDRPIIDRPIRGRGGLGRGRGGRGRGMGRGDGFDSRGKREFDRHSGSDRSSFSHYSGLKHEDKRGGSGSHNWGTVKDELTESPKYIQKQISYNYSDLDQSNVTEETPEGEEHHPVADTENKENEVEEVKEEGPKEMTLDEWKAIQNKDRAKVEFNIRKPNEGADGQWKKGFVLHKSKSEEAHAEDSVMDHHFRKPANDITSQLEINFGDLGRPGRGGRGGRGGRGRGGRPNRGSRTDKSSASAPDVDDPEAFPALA

[9] = target: SW480 colon carcinoma cells lysate proteins (Homo sapiens, UniProt Q71U36); conditions: PreyGene TUBA1A; SW480 cells
[10] = target: SW480 colon carcinoma cells lysate proteins (Homo sapiens, UniProt P39687); conditions: PreyGene ANP32A
[11] = target: SW480 colon carcinoma cells lysate proteins (Homo sapiens, UniProt Q15365); conditions: PreyGene PCBP1; SW480 cells
SW480 colon carcinoma cells lysate proteins (Homo sapiens, UniProt Q15365), sequence (Q15365 whole entry): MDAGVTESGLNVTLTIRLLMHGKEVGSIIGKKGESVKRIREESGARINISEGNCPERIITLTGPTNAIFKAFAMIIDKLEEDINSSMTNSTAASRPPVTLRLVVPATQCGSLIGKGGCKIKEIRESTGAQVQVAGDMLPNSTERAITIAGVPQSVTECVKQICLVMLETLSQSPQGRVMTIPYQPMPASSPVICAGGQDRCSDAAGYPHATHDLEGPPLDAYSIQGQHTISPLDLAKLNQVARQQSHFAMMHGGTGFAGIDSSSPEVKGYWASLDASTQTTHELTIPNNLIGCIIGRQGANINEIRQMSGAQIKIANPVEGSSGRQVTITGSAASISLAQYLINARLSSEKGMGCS

SW480 colon carcinoma cells lysate proteins (Homo sapiens, UniProt P39687), sequence (P39687 whole entry): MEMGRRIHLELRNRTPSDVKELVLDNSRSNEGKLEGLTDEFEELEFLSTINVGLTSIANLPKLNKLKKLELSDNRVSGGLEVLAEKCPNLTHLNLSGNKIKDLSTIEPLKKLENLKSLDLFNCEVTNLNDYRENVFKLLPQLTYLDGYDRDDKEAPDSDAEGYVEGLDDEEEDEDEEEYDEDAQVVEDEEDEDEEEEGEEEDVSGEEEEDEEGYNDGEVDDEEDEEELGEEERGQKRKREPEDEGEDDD
SW480 colon carcinoma cells lysate proteins (Homo sapiens, UniProt P67809), sequence (P67809 whole entry): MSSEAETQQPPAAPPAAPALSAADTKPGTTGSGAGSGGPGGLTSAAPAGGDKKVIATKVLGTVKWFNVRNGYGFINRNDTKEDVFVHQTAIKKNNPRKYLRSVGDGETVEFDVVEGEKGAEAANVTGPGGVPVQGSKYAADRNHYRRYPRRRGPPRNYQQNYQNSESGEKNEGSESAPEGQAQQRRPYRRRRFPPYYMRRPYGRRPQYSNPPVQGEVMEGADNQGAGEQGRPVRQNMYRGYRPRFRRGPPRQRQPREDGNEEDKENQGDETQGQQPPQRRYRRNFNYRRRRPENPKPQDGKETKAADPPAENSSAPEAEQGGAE
SW480 colon carcinoma cells lysate proteins (Homo sapiens, UniProt P30153), sequence (P30153 whole entry): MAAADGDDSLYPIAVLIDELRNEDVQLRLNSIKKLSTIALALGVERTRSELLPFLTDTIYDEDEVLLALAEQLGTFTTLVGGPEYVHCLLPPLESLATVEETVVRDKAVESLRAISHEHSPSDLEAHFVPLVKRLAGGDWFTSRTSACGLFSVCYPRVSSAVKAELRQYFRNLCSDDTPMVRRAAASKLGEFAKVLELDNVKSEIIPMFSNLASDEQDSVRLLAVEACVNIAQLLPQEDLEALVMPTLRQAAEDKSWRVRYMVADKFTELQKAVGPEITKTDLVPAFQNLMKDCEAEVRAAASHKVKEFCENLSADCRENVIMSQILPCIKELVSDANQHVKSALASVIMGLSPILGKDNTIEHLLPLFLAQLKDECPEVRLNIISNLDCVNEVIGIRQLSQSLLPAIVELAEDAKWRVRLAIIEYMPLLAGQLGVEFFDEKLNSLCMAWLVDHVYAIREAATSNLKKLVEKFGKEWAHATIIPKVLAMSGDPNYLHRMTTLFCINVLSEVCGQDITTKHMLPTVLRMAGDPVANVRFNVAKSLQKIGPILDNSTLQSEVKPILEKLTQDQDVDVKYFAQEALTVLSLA
SW480 colon carcinoma cells lysate proteins (Homo sapiens, UniProt Q7Z406), sequence (Q7Z406 whole entry): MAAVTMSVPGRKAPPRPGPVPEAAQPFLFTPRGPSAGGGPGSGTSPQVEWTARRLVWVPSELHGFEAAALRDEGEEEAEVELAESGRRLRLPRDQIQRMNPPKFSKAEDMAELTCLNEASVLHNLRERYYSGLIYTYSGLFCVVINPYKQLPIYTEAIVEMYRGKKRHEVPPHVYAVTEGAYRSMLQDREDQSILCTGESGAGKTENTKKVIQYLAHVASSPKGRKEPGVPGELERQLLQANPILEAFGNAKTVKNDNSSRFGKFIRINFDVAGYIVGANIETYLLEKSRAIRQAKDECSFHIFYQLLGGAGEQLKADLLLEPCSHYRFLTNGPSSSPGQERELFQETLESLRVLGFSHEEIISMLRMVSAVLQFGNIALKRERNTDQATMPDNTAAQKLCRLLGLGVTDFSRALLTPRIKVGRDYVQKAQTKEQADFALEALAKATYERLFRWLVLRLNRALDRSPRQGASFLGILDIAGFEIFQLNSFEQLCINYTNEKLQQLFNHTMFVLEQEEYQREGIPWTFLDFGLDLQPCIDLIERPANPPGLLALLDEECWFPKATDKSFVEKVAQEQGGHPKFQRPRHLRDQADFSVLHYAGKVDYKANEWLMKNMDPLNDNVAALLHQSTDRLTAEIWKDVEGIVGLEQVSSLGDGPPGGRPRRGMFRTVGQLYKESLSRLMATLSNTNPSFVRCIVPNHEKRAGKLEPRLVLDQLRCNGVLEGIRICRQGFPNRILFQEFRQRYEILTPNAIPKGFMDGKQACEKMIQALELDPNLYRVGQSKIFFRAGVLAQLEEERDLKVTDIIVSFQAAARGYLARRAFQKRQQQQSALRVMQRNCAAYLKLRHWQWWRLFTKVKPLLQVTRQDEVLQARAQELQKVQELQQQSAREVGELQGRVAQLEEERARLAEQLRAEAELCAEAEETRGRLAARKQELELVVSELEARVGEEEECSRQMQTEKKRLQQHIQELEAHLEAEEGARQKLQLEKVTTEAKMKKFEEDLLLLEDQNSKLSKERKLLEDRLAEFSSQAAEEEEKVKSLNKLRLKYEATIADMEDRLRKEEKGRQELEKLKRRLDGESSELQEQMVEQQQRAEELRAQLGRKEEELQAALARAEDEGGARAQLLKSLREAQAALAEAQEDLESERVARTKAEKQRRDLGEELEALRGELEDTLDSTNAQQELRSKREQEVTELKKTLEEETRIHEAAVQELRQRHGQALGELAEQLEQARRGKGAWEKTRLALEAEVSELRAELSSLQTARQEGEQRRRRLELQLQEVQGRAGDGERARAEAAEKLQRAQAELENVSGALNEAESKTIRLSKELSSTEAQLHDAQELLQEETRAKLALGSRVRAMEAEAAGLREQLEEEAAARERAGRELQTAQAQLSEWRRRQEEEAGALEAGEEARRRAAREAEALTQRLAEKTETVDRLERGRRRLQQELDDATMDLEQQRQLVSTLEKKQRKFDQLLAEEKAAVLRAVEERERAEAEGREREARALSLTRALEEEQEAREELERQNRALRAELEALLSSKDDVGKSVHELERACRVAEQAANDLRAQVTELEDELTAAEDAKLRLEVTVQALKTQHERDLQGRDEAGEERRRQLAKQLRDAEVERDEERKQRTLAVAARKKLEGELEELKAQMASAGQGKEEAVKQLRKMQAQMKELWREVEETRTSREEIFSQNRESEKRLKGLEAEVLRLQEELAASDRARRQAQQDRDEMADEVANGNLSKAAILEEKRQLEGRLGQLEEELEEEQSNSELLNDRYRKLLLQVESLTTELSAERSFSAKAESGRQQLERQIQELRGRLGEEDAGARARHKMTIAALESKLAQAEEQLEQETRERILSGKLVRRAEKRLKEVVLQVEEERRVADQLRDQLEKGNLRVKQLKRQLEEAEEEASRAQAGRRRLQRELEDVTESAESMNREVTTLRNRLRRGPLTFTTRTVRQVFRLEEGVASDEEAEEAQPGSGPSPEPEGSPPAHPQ
SW480 colon carcinoma cells lysate proteins (Homo sapiens, UniProt P22626), sequence (P22626 whole entry): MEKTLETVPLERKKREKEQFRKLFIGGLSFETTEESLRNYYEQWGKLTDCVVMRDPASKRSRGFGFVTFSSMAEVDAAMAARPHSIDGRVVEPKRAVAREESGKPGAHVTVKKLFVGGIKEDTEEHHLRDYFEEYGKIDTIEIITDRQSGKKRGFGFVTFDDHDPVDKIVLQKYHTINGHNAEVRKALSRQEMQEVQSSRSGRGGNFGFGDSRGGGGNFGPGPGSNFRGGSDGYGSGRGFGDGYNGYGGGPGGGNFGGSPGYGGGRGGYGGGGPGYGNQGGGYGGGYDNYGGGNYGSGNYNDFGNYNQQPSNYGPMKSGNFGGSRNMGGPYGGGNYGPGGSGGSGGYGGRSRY
SW480 colon carcinoma cells lysate proteins (Homo sapiens, UniProt Q71U36), sequence (Q71U36 whole entry): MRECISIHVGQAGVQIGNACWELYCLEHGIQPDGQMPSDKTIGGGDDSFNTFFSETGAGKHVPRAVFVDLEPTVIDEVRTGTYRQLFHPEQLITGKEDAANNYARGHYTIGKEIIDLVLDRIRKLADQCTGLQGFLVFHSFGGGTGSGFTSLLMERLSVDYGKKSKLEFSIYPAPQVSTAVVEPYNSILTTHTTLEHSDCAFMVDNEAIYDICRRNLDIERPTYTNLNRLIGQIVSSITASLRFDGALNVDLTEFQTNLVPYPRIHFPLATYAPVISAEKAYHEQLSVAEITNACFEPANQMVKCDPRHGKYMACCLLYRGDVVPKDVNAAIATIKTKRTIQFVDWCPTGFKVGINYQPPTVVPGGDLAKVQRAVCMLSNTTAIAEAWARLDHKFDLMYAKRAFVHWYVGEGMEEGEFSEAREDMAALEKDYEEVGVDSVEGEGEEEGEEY

In the case of `C[C@H](Oc1cc(-c2cnn(C3CCNCC3)c2)cnc1N)c1c(Cl)ccc(F)c1Cl` [(5)-crizotinib], the AvgP [1] was 0.1841, the “SC.Exp. 1-1” value [1] was 2 and the “SC.Exp. 1-2” value [1] was 0. For the same molecule, the “SC.Exp. 2-1” value [1] was 0, the “SC.Exp. 2-2” value [1] was 0 and the “Sum (SC.Exp.)” value [1] was 2. The AvgP [2] was 0.3569, the “SC.Exp. 1-1” value [2] was 26 and the “SC.Exp. 1-2” value [2] was 24. The “SC.Exp. 2-1” value [2] was 5, the “SC.Exp. 2-2” value [2] was 3 and the “Sum (SC.Exp.)” value [2] was 58. The AvgP [3] was 0.33, the “SC.Exp. 1-1” value [3] was 3 and the “SC.Exp. 1-2” value [3] was 3. For the same molecule, the “SC.Exp. 2-1” value [3] was 0, the “SC.Exp. 2-2” value [3] was 0 and the “Sum (SC.Exp.)” value [3] was 6. The AvgP [4] was 0, the “SC.Exp. 1-1” value [4] was 1 and the “SC.Exp. 1-2” value [4] was 1. The “SC.Exp. 2-1” value [4] was 0, the “SC.Exp. 2-2” value [4] was 0 and the “SC.Exp. Sum” value [4] was 2. The AvgP [5] was 0.2944, the “SC.Exp. 1-1” value [5] was 2 and the “SC.Exp. 1-2” value [5] was 2. The “SC.Exp. 2-1” value [5] was 0, the “SC.Exp. 2-2” value [5] was 2 and the “Sum (SC.Exp.)” value [5] was 6. The AvgP [6] was 0.4042, the “SC.Exp. 1-1” value [6] was 3 and the “SC.Exp. 1-2” value [6] was 3. For the same molecule, the “SC.Exp. 2-1” value [6] was 0, the “SC.Exp. 2-2” value [6] was 0 and the “Sum (SC.Exp.)” value [6] was 6. The AvgP [7] was 0, the “SC.Exp. 1-1” value [7] was 2 and the “SC.Exp. 1-2” value [7] was 2. For the same molecule, the “SC.Exp. 2-1” value [7] was 2, the “SC.Exp. 2-2” value [7] was 2 and the “SC.Exp. Sum” value [7] was 8. For the same molecule, the AvgP [8] was 0, the “SC.Exp. 1-1” value [8] was 8 and the “SC.Exp. 1-2” value [8] was 10. The “SC.Exp. 2-1” value [8] was 5, the “SC.Exp. 2-2” value [8] was 6 and the “SC.Exp. Sum” value [8] was 29. For the same molecule, the AvgP [9] was 0, the “SC.Exp. 1-1” value [9] was 12 and the “SC.Exp. 1-2” value [9] was 11. The “SC.Exp. 2-1” value [9] was 9, the “SC.Exp. 2-2” value [9] was 10 and the “SC.Exp. Sum” value [9] was 42. For the same molecule, the AvgP [10] was 0.5951, the “SC.Exp. 1-1” value [10] was 1 and the “SC.Exp. 1-2” value [10] was 1. For the same molecule, the “SC.Exp. 2-1” value [10] was 1, the “SC.Exp. 2-2” value [10] was 3 and the “Sum (SC.Exp.)” value [10] was 6. The AvgP [11] was 0, the “SC.Exp. 1-1” value [11] was 0 and the “SC.Exp. 1-2” value [11] was 1. The “SC.Exp. 2-1” value [11] was 0, the “SC.Exp. 2-2” value [11] was 0 and the “SC.Exp. Sum” value [11] was 1.
